Earlier results, collected in patent publication US20070098786A1, “ENTERIC VALPROIC ACID” (Banner Pharmacaps, Inc., priority 2005, published 2007).

CCCC(CCC)C(=O)O [Divalproex sodium]
solubility in water: soluble in water
